The values below come from patent US9474790B2, “Stable, protracted GLP-1/glucagon receptor co-agonists for medical use” (Novo Nordisk A/S, priority 2013, dated 2016).

Data set [1] is described as follows: Chemical stability assessment by RP-UPLC. The following applies: 333 μM, 8 mM phosphate buffer pH 7.3, 37° C. vs 5° C. Format: physicochemical. A digest of the protocol:
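Purity loss = (purity after 14 days at 5° C. minus that at 37° C.) relative to the 5° C. value, purity being main-peak area % by RP-UPLC with UV at 215 nm. Samples were 333 μM in 8 mM phosphate, pH 7.3; gradient adjusted for outlying retention times.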

A short description of data set [2]: Thioflavin T (ThT) fibrillation assay for physical stability. Format: physicochemical. The note with it: 250 μM in 10 mM HEPES buffer, pH 7.5, 37° C., shaking 960 rpm. In a few lines:
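Fibrillation was followed by ThT (1 μM) fluorescence every 20 min, 444/485 nm, for 250 μM peptide in 10 mM HEPES pH 7.5 shaken at 960 rpm, 37° C. Lag time (t0−2τ) and apparent rate constant (1/τ) come from a sigmoidal fit. Recovery is % of initial concentration remaining soluble after centrifugation and filtration (RP-HPLC).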

Numbered stars: 1 amine (or outer) side, 2 acyl side, 3 side chain; on linkers, the order of the positions; unused ones are H or OH. Bridge positions count the residues as written; N and C are the ends. Square brackets hold non-standard residues; d marks the D form. Side chains are listed from the residue outwards. Peptide text beside a SMILES is read from it. I, II: the chains in the order shown. * marks the point of attachment. C18 diacid = O=C(O)CCCCCCCCCCCCCCCCC(=O)*; γGlu = O=C(O)[C@H](CCC(=O)[*:2])N[*:1]; AEEA = NCCOCCOCC(=O)O; Aib = CC(C)(N)C(=O)O

Consider `CC(C)C[C@H](NC(=O)[C@H](Cc1ccc(O)cc1)NC(=O)[C@H](CCCCN)NC(=O)[C@H](CO)NC(=O)[C@H](CC(C)C)NC(=O)[C@H](CC(=O)O)NC(=O)[C@H](CO)NC(=O)[C@@H](NC(=O)[C@H](Cc1ccccc1)NC(=O)[C@@H](NC(=O)CNC(=O)[C@H](CCC(N)=O)NC(=O)C(C)(C)NC(=O)[C@@H](N)Cc1c[nH]cn1)[C@@H](C)O)[C@@H](C)O)C(=O)N[C@@H](CCC(=O)O)C(=O)N[C@@H](CO)C(=O)N[C@@H](CCCNC(=N)N)C(=O)N[C@@H](CCCNC(=N)N)C(=O)N[C@@H](C)C(=O)N[C@@H](CCCNC(=N)N)C(=O)N[C@@H](CCC(=O)O)C(=O)N[C@@H](Cc1ccccc1)C(=O)N[C@H](C(=O)N[C@@H](CCC(N)=O)C(=O)N[C@@H](Cc1c[nH]c2ccccc12)C(=O)N[C@@H](CC(C)C)C(=O)N[C@@H](CC(C)C)C(=O)N[C@@H](CCCCNC(=O)CC[C@H](NC(=O)CC[C@H](NC(=O)COCCOCCNC(=O)COCCOCCNC(=O)CC[C@H](NC(=O)CCCCCCCCCCCCCCCCC(=O)O)C(=O)O)C(=O)O)C(=O)O)C(=O)N[C@H](C(N)=O)[C@@H](C)O)C(C)C` [Example 23, N^ε28-[(4S)-4-carboxy-4-[[(4S)-4-carboxy-4-[[2-[2-[2-[[2-[2-[2-[[(4S)-4-carboxy-4-(17-carboxyheptadecanoylamino)butanoyl]amino]ethoxy]ethoxy]acetyl]amino]ethoxy]ethoxy]acetyl]amino]butanoyl]amino]butanoyl]-[Aib2,Leu10,Glu15,Arg20,Glu21,Leu27,Lys28]-Glucagon amide] (H-H[Aib]QGTFTSDLSKYLESRRAREFVQWLLK([γGlu-γGlu-AEEA-AEEA-γGlu-C18 diacid])T-NH2; N-terminus assumed), for which the “Purity loss; 14 days at 37° C.” value in data set [1] amounted to 2%. In data set [2], this molecule registered a THT assay Lag time (Ex. 76) of 45 h.
Turning to `CC(C)C[C@H](NC(=O)[C@H](Cc1ccc(O)cc1)NC(=O)[C@H](CCCCN)NC(=O)[C@H](CO)NC(=O)[C@H](CC(C)C)NC(=O)[C@H](CC(=O)O)NC(=O)[C@H](CO)NC(=O)[C@@H](NC(=O)[C@H](Cc1ccccc1)NC(=O)[C@@H](NC(=O)CNC(=O)[C@H](CCC(N)=O)NC(=O)C(C)(C)NC(=O)[C@@H](N)Cc1c[nH]cn1)[C@@H](C)O)[C@@H](C)O)C(=O)N[C@@H](CCC(=O)O)C(=O)N[C@@H](CO)C(=O)N[C@@H](CCCCN)C(=O)N[C@@H](CCCNC(=N)N)C(=O)N[C@@H](C)C(=O)N[C@@H](CCCNC(=N)N)C(=O)N[C@@H](CCC(=O)O)C(=O)N[C@@H](Cc1ccccc1)C(=O)N[C@H](C(=O)N[C@@H](CCC(N)=O)C(=O)N[C@@H](Cc1c[nH]c2ccccc12)C(=O)N[C@@H](CC(C)C)C(=O)N[C@@H](CC(C)C)C(=O)N[C@@H](CCCCNC(=O)CNC(=O)[C@H](CO)NC(=O)[C@H](CCC(=O)O)NC(=O)CNC(=O)[C@H](CO)NC(=O)CC[C@H](NC(=O)CC[C@H](NC(=O)CCCCCCCCCCCCCCCCC(=O)O)C(=O)O)C(=O)O)C(=O)N[C@H](C(N)=O)[C@@H](C)O)C(C)C` [Example 25, N^ε28-[2-[[(2S)-2-[[(2S)-4-carboxy-2-[[2-[[(2S)-2-[[(4S)-4-carboxy-4-[[(4S)-4-carboxy-4-(17-carboxyheptadecanoylamino)butanoyl]amino]butanoyl]amino]-3-hydroxypropanoyl]amino]acetyl]amino]butanoyl]amino]-3-hydroxypropanoyl]amino]acetyl]-[Aib2,Leu10,Glu15,Lys17,Arg20,Glu21,Leu27,Lys28]-Glucagon amide] (I: H-H[Aib]QGTFTSDLSKYLESKRAREFVQWLLKT-NH2 / II: {C18 diacid-γGlu-γGlu}-SGESG; amide I:28-II:C; N-terminus assumed), the “Purity loss; 14 days at 37° C.” value in data set [1] turned out to be 1%. Besides, the THT assay Lag time (Ex. 76) in data set [2] came out at 45 h.
Consider `CC(C)C[C@H](NC(=O)[C@H](CC(=O)O)NC(=O)[C@H](CC(C)C)NC(=O)[C@H](Cc1ccc(O)cc1)NC(=O)[C@H](CCCCN)NC(=O)[C@H](CO)NC(=O)[C@H](CC(C)C)NC(=O)[C@H](CC(=O)O)NC(=O)[C@H](CO)NC(=O)[C@@H](NC(=O)[C@H](Cc1ccccc1)NC(=O)[C@@H](NC(=O)CNC(=O)[C@H](CCC(N)=O)NC(=O)C(C)(C)NC(=O)[C@@H](N)Cc1c[nH]cn1)[C@@H](C)O)[C@@H](C)O)C(=O)N[C@@H](CCCCN)C(=O)N[C@@H](CCCNC(=N)N)C(=O)N[C@@H](C)C(=O)N[C@@H](CCCNC(=N)N)C(=O)N[C@@H](CCC(=O)O)C(=O)N[C@@H](Cc1ccccc1)C(=O)N[C@H](C(=O)N[C@@H](CCC(N)=O)C(=O)N[C@@H](Cc1c[nH]c2ccccc12)C(=O)N[C@@H](CC(C)C)C(=O)N[C@@H](CC(C)C)C(=O)N[C@@H](CCCCNC(=O)CC[C@H](NC(=O)CC[C@H](NC(=O)COCCOCCNC(=O)COCCOCCNC(=O)CC[C@H](NC(=O)CCCCCCCCCCCCCCCCC(=O)O)C(=O)O)C(=O)O)C(=O)O)C(=O)N[C@H](C(N)=O)[C@@H](C)O)C(C)C` [Example 26, N^ε28-[(4S)-4-carboxy-4-[[(4S)-4-carboxy-4-[[2-[2-[2-[[2-[2-[2-[[(4S)-4-carboxy-4-(17-carboxyheptadecanoylamino)butanoyl]amino]ethoxy]ethoxy]-acetyl]amino]ethoxy]ethoxy]acetyl]amino]butanoyl]amino]butanoyl]-[Aib2,Leu10,Leu16,Lys17,Arg20,Glu21, Leu27,Lys28]-Glucagon amide] (H-H[Aib]QGTFTSDLSKYLDLKRAREFVQWLLK([γGlu-γGlu-AEEA-AEEA-γGlu-C18 diacid])T-NH2), for which, in data set [1], the “Purity loss; 14 days at 37° C.” value was 2%. Further, in data set [2], the THT assay Lag time (Ex. 76) turned out to be 45 h.
In the case of `CC(C)C[C@H](NC(=O)[C@H](Cc1ccc(O)cc1)NC(=O)[C@H](CCCCN)NC(=O)[C@H](CO)NC(=O)[C@H](CC(C)C)NC(=O)[C@H](CC(=O)O)NC(=O)[C@H](CO)NC(=O)[C@@H](NC(=O)[C@H](Cc1ccccc1)NC(=O)[C@@H](NC(=O)CNC(=O)[C@H](Cc1c[nH]cn1)NC(=O)C(C)(C)NC(=O)[C@@H](N)Cc1c[nH]cn1)[C@@H](C)O)[C@@H](C)O)C(=O)N[C@@H](CCC(=O)O)C(=O)N[C@@H](CO)C(=O)N[C@@H](CCCCN)C(=O)N[C@@H](CCCNC(=N)N)C(=O)N[C@@H](C)C(=O)N[C@@H](CCCNC(=N)N)C(=O)N[C@@H](CCC(=O)O)C(=O)N[C@@H](Cc1ccccc1)C(=O)N[C@H](C(=O)N[C@@H](CCC(N)=O)C(=O)N[C@@H](Cc1c[nH]c2ccccc12)C(=O)N[C@@H](CC(C)C)C(=O)N[C@@H](CC(C)C)C(=O)N[C@@H](CCCCNC(=O)CC[C@H](NC(=O)CC[C@H](NC(=O)COCCOCCNC(=O)COCCOCCNC(=O)CC[C@H](NC(=O)CCCCCCCCCCCCCCCCC(=O)O)C(=O)O)C(=O)O)C(=O)O)C(=O)N[C@H](C(N)=O)[C@@H](C)O)C(C)C` [Example 27, N^ε28-[(4S)-4-carboxy-4-[[(4S)-4-carboxy-4-[[2-[2-[2-[[2-[2-[2-[[(4S)-4-carboxy-4-(17-carboxyheptadecanoylamino)butanoyl]amino]ethoxy]ethoxy]acetyl]amino]ethoxy]ethoxy]acetyl]amino]butanoyl]amino]butanoyl]-[Aib2,His3,Leu10,Glu15,Lys17,Arg20,Glu21,Leu27, Lys28]-Glucagon amide] (H-H[Aib]HGTFTSDLSKYLESKRAREFVQWLLK([γGlu-γGlu-AEEA-AEEA-γGlu-C18 diacid])T-NH2; N-terminus assumed), in data set [1], the “Purity loss; 14 days at 37° C.” value stood at 5%. The THT assay Lag time (Ex. 76) in data set [2] was 42 h.
On to `CC(C)C[C@H](NC(=O)[C@H](Cc1ccc(O)cc1)NC(=O)[C@H](CCCCN)NC(=O)[C@H](CO)NC(=O)[C@H](CC(C)C)NC(=O)[C@H](CC(=O)O)NC(=O)[C@H](CO)NC(=O)[C@@H](NC(=O)[C@H](Cc1ccccc1)NC(=O)[C@@H](NC(=O)CNC(=O)[C@H](Cc1c[nH]cn1)NC(=O)C(C)(C)NC(=O)[C@@H](N)Cc1c[nH]cn1)[C@@H](C)O)[C@@H](C)O)C(=O)N[C@@H](CCC(=O)O)C(=O)N[C@@H](CO)C(=O)N[C@@H](CCCCN)C(=O)N[C@@H](CCCNC(=N)N)C(=O)N[C@@H](C)C(=O)N[C@@H](CCCNC(=N)N)C(=O)N[C@@H](CCC(=O)O)C(=O)N[C@@H](Cc1ccccc1)C(=O)N[C@H](C(=O)N[C@@H](CCC(N)=O)C(=O)N[C@@H](Cc1c[nH]c2ccccc12)C(=O)N[C@@H](CC(C)C)C(=O)N[C@@H](CC(C)C)C(=O)N[C@@H](CCCCNC(=O)CC[C@H](NC(=O)CC[C@H](NC(=O)CC[C@H](NC(=O)CCCCCCCCCCCCCCCCC(=O)O)C(=O)O)C(=O)O)C(=O)O)C(=O)N[C@H](C(N)=O)[C@@H](C)O)C(C)C` [Example 34, N^ε28-[(4S)-4-carboxy-4-[[(4S)-4-carboxy-4-[[(4S)-4-carboxy-4-(17-carboxyheptadecanoylamino)butanoyl]amino]butanoyl]amino]butanoyl]-[Aib2,His3,Leu10,Glu15,Lys17,Arg20,Glu21,Leu27,Lys28]-Glucagon amide] (H-H[Aib]HGTFTSDLSKYLESKRAREFVQWLLK([γGlu-γGlu-γGlu-C18 diacid])T-NH2; N-terminus assumed), for which the “Purity loss; 14 days at 37° C.” value in data set [1] was 5%. The molecule further registered a THT assay Lag time (Ex. 76) in data set [2] of 45 h.
